# Measured values reported in patent US20180044329A1, “3-SUBSTITUTED-1,2,4-OXADIAZOLE AND THIADIAZOLE COMPOUNDS AS IMMUNOMODULATORS” (AURIGENE DISCOVERY TECHNOLOGIES LIMITED, priority 2015, published 2018).
# System: Recombinant mouse PD-L1
# Assay: Rescue of mouse splenocyte proliferation in the presence of recombinant PD-L1 (CFSE proliferation assay)
# Format: cell-based
# Conditions: compound at 100 nM; anti-CD3/CD28 stimulated mouse splenocytes + PD-L1; 72 h; stimulated splenocyte proliferation normalised as 100%; read-out: Percent rescue of splenocyte proliferation (@100 nM)
# Description: Rescue of Mouse Splenocyte Proliferation in the Presence of Recombinant PD-L1
# Recombinant mouse PD-L1 (rm-PDL-1, cat no: 1019-B7-100; R&D Systems) were used as the source of PD-L1.
# Mouse splenocytes harvested from 6-8 weeks old C57 BL6 mice; RPMI 1640 (GIBCO, Cat #11875); DMEM with high glucose (GIBCO, Cat #D6429); Fetal Bovine Serum [Hyclone, Cat #SH30071.03]; Penicillin (10000 unit/mL)-Streptomycin (10,000 μg/mL) Liquid (GIBCO, Cat #15140-122); MEM Sodium Pyruvate solution 100 mM (100×), Liquid (GIBCO, Cat #11360); Nonessential amino acid (GIBCO, Cat #11140); L-Glutamine (GIBCO, Cat #25030); Anti-CD3 antibody (eBiosciences—16-0032); Anti-CD28 antibody (eBiosciences—16-0281); ACK lysis buffer (1 mL) (GIBCO, Cat #-A10492); Histopaque (density-1.083 gm/mL) (SIGMA 10831); Trypan blue solution (SIGMA-T8154); 2 mL Norm Ject Luer Lock syringe-(Sigma 2014-12); 40 μm nylon cell strainer (BD FALCON 35230); Hemacytometer (Bright line-SIGMA Z359629); FACS Buffer (PBS/0.1% BSA): Phosphate Buffered Saline (PBS) pH 7.2 (Hi-Media TS1006) with 0.1% Bovine Serum Albumin (BSA) (SIGMA A7050) and sodium azide (SIGMA 08591); 5 mM stock solution of CFSE: CFSE stock solution was prepared by diluting lyophilized CFSE with 180 μL of Dimethyl sulfoxide (DMSO C2H6SO, SIGMA-D-5879) and aliquoted in to tubes for further use. Working concentrations were titrated from 10 μM to 1 μM. (eBioscience-650850-85); 0.05% Trypsin and 0.02% EDTA (SIGMA 59417C); 96-well format ELISA plates (Corning CLS3390); BD FACS caliber (E6016); Recombinant mouse B7-H1/PDL1 Fc Chimera, (rm-PD-L1 cat no: 1019-B7-100).
# Splenocytes harvested in a 50 mL falcon tube by mashing mouse spleen in a 40 μm cell strainer were further treated with 1 mL ACK lysis buffer for 5 min at room temperature. After washing with 9 mL of RPMI complete media, cells were re-suspended in 3 mL of 1× PBS in a 15 mL tube. 3 mL of Histopaque was added carefully to the bottom of the tube without disturbing overlaying splenocyte suspension. After centrifuging at 800×g for 20 min at room temperature, the opaque layer of splenocytes was collected carefully without disturbing/mixing the layers. Splenocytes were washed twice with cold 1× PBS followed by total cell counting using Trypan Blue exclusion method and used further for cell based assays.
# Splenocytes were cultured in RPMI complete media (RPMI+10% fetal bovine serum+1 mM sodium pyruvate+10,000 units/mL penicillin and 10,000 μg/mL streptomycin) and maintained in a CO2 incubator with 5% CO2 at 37° C.
# CFSE is a dye that passively diffuses into cells and binds to intracellular proteins. 1×10^6 cells/mL of harvested splenocytes were treated with 5 μM of CFSE in pre-warmed 1× PBS/0.1% BSA solution for 10 min at 37° C. Excess CFSE was quenched using 5 volumes of ice-cold culture media to the cells and incubated on ice for 5 min CFSE labelled splenocytes were further given three washes with ice cold complete RPMI media. CFSE labelled 1×10^5 splenocytes added to wells containing either MDA-MB231 cells (1×10^5 cells cultured in high glucose DMEM medium) or recombinant human PDL-1 (100 ng/mL) and compounds of the present invention. Splenocytes were stimulated with anti-mouse CD3 and anti-mouse CD28 antibody (1 μg/mL each) and the culture was further incubated for 72 h at 37° C. with 5% CO2. Cells were harvested and washed thrice with ice cold FACS buffer and % proliferation was analysed by flow cytometry with 488 nm excitation and 521 nm emission filters.
# Percent splenocyte proliferation was analysed using cell quest FACS program and percent rescue of splenocyte proliferation by compound was estimated after deduction of % background proliferation value and normalising to % stimulated splenocyte proliferation (positive control) as 100%. […]
row,Compound,activity at 0.1 µM [%]
1,CC(O)[C@H](NC(=O)N[C@@H](CC(N)=O)c1nc(N2CCCCC2)no1)C(=O)O (stereo partly shown) [Compound 15],54
2,CC(O)[C@H](NC(=O)N[C@@H](CC(N)=O)c1nc(N2CCNCC2)no1)C(=O)O (stereo partly shown) [Compound 16],79
3,CC(O)[C@H](NC(=O)N[C@@H](CC(N)=O)c1nc(-c2ccccn2)no1)C(=O)O (stereo partly shown) [Compound 20],27
4,CC(O)[C@H](NC(=O)N[C@@H](CC(N)=O)c1nc(-c2cnccn2)no1)C(=O)O (stereo partly shown) [Compound 21],39
5,CC(O)[C@H](NC(=O)N[C@@H](CC(N)=O)c1nc(-c2cc(Cl)ccn2)no1)C(=O)O (stereo partly shown) [Compound 22],39
6,COc1ccnc(-c2noc([C@H](CC(N)=O)NC(=O)N[C@H](C(=O)O)C(C)O)n2)c1 (stereo partly shown) [Compound 23],27
7,CC(O)[C@H](NC(=O)N[C@@H](CC(N)=O)c1nc(-c2cccc(F)c2)no1)C(=O)O (stereo partly shown) [Compound 24],50
8,CC(O)[C@H](NC(=O)N[C@@H](CC(N)=O)c1nc(-c2cc(F)ccc2F)no1)C(=O)O (stereo partly shown) [Compound 25],42
9,Cc1ccc(-c2noc([C@H](CC(N)=O)NC(=O)N[C@H](C(=O)O)C(C)O)n2)o1 (stereo partly shown) [Compound 26],24
10,CC(O)[C@H](NC(=O)N[C@@H](CC(N)=O)c1nc(N2CCC[C@H](O)C2)no1)C(=O)O (stereo partly shown) [Compound 27],6
11,O=C(O)CNC(=O)N[C@@H](CC(=O)O)c1nc(N2CCCC2)no1 [Compound 30],7
12,CC(O)[C@H](NC(=O)N[C@@H](Cc1cn(-c2ccccc2C(=O)O)nn1)c1nc(-c2cnccn2)no1)C(=O)O (stereo partly shown) [Compound 31],67
13,C#CC[C@H](NC(=O)N[C@H](C(=O)O)C(C)O)c1nc(-c2cnccn2)no1 (stereo partly shown) [Compound 32],92
14,NCCCC[C@H](NC(=O)N[C@@H](CC(N)=O)c1nc([C@H]2CCCCN2)no1)C(=O)O [Compound 34],78
15,CC(O)[C@H](NC(=O)N[C@@H](CCC(=O)O)c1nc(-c2cc(F)ccc2F)no1)C(=O)O (stereo partly shown) [Compound 37],74
16,CC(O)[C@H](NC(=O)N[C@@H](CC(=O)O)c1nc(N2CCCC2)no1)C(=O)O (stereo partly shown) [Compound 38],27
17,CC(O)[C@H](NC(=O)N[C@@H](CCC(=O)O)c1nc(N2CCCC2)no1)C(=O)O (stereo partly shown) [Compound 39],39
18,CC(O)[C@H](NC(=O)N[C@@H](CC(N)=O)c1nc(-c2ccc(-c3ccccc3)cc2)no1)C(=O)O (stereo partly shown) [Compound 40],79
19,CC(O)[C@H](NC(=O)N[C@@H](CC(=O)O)c1nc(-c2cnccn2)no1)C(=O)O (stereo partly shown) [Compound 41],73
20,CC(O)[C@H](NC(=O)N[C@@H](CC(N)=O)c1nc([C@@H]2COCCN2)no1)C(=O)O (stereo partly shown) [Compound 43],92
21,CC(O)[C@H](NC(=O)N[C@@H](CC(N)=O)c1nc([C@@H]2CCCCN2)no1)C(=O)O (stereo partly shown) [Compound 44],84
22,CC(O)[C@H](NC(=O)N[C@@H](CC(N)=O)c1nc([C@@H]2CNCCN2)no1)C(=O)O (stereo partly shown) [Compound 45],49
23,CC(O)[C@H](NC(=O)N[C@@H](CC(N)=O)c1nc(C2CCCCC2)no1)C(=O)O (stereo partly shown) [Compound 46],52
24,CC(O)[C@H](NC(=O)N[C@@H](CCC(=O)O)c1nc([C@@H]2COCCN2)no1)C(=O)O (stereo partly shown) [Compound 47],57
25,CC(O)[C@H](NC(=O)N[C@@H](CC(N)=O)c1nc(C2(N)CCCC2)no1)C(=O)O (stereo partly shown) [Compound 48],47
26,CC(O)[C@H](NC(=O)N[C@@H](CC(N)=O)c1nc(C2(N)CCCCC2)no1)C(=O)O (stereo partly shown) [Compound 49],16
27,CC(O)[C@H](NC(=O)N[C@@H](CC(N)=O)c1nc([C@@H]2C[C@@H](O)CN2)no1)C(=O)O (stereo partly shown) [Compound 51],44
28,C[C@H](NC(=O)N[C@@H](CCCCN)c1nc([C@@H]2CCCN2)no1)C(=O)O [Compound 52],46
